Experimental data as given in patent US20210060033A1, “ORALLY ADMINISTERED COMBINATIONS OF BETA-LACTAM ANTIBIOTICS AND AVIBACTAM DERIVATIVES FOR TREATING BACTERIAL INFECTIONS” (priority 2019, published 2021).
Read-outs that look alike come from different tables or passages of the source.

Key:
[1] = in vivo; cited from earlier work
314 Enterobacteriaceae = assay type: cell-based; conditions: for MIC90 with addition of avibactam: all isolates combined, avibactam at a fixed concentration of 4 μg/mL; for Estimated MIC90: Enterobacteria n = 314 (all isolates combined), avibactam or clavulanic acid fixed at 4 μg/mL in combinations
[2] = rat, in vivo, po; cited from earlier work
[3] = system: ESBL-positive isolates (n = 28); assay type: cell-based, Enterobacteriaceae; conditions: ESBL n = 28; avibactam or clavulanic acid fixed at 4 μg/mL in combinations
[4] = system: OXA-positive isolates (n = 22); assay type: cell-based, Enterobacteriaceae; conditions: for Estimated MIC90: OXA n = 22, avibactam or clavulanic acid fixed at 4 μg/mL in combinations; for MIC90 with addition of avibactam: OXA-positive isolates, avibactam 4 μg/mL
[5] = system: KPC-positive isolates (n = 23); assay type: cell-based, Enterobacteriaceae; conditions: for Estimated MIC90: KPC n = 23, avibactam or clavulanic acid fixed at 4 μg/mL in combinations; for MIC90 with addition of avibactam: KPC-positive isolates, avibactam 4 μg/mL
[6] = system: pAmpC (PlasAmpC) isolates (n = 20); assay type: cell-based, Enterobacteriaceae; conditions: pAmpC n = 20; avibactam or clavulanic acid fixed at 4 μg/mL in combinations
[7] = Oral administration of avibactam derivative (3) to healthy human volunteers (Example 2), plasma avibactam; assay type: in vivo; conditions: for AUC0-INF: unit not given
Method: The pharmacokinetics of avibactam provided as an orally administered avibactam derivative was determined on healthy human volunteers.
[…] The plasma concentration of avibactam was measured. The free avibactam concentration was adjusted for from 5% to 8% protein binding (AUCfree=AUC0-inf×[…]).

[8] = Single ascending oral dose phase 1 study of avibactam derivative (3) (Example 3), avibactam PK; assay type: in vivo, human; conditions: avibactam in plasma, fed
Method: The pharmacokinetics of avibactam provided as an orally administered avibactam derivative was determined on healthy human volunteers. A randomized, double-blind, placebo-controlled single ascending dose phase 1 study was undertaken with healthy male and female adults. […] Plasma and urine PK samples were collected prior to dosing and at frequent intervals after dosing. […] FIG. 12 also provides an overall estimate of F for the study population (n=24) presented as a conventional box-whisker graphic (median, interquartile range [25-75%] and Tukey whiskers).

[9] = dog, in vivo; cited from earlier work
[10] = cynomolgus monkey, in vivo; cited from earlier work
[11] = avibactam, oral 300 mg of avibactam derivative (3), healthy

## CC(C)(COS(=O)(=O)ON1C(=O)N2C[C@H]1CC[C@H]2C(N)=O)C(=O)OCc1ccccc1 [avibactam derivative (4), benzyl 3-(((((1R,2S,5R)-2-carbamoyl-7-oxo-1,6-diazabicyclo[3.2.1]octan-6-yl)oxy)sulfonyl)oxy)-2,2-dimethylpropanoate]
[1]
  oral bioavailability (% F): greater than 10 % F

## CC(C)OC(=O)C(C)(C)COS(=O)(=O)ON1C(=O)N2C[C@H]1CC[C@H]2C(N)=O [avibactam derivative (11), isopropyl 3-(((((1R,2S,5R)-2-carbamoyl-7-oxo-1,6-diazabicyclo[3.2.1]octan-6-yl)oxy)sulfonyl)oxy)-2,2-dimethylpropanoate]
[1]
  oral bioavailability (% F): greater than 10 % F

## CCCCCCOC(=O)C(C)(C)COS(=O)(=O)ON1C(=O)N2C[C@H]1CC[C@H]2C(N)=O [avibactam derivative (12), hexyl 3-(((((1R,2S,5R)-2-carbamoyl-7-oxo-1,6-diazabicyclo[3.2.1]octan-6-yl)oxy)sulfonyl)oxy)-2,2-dimethylpropanoate]
[1]
  oral bioavailability (% F): greater than 10 % F

## C[C@H]1[C@H](NC(=O)/C(=N\OC(C)(C)C(=O)O)c2csc(N)n2)C(=O)N1S(=O)(=O)O [aztreonam]
314 Enterobacteriaceae
  MIC90 with addition of avibactam: 0.5 µg/mL

## CCCCCCCOC(=O)CCC(C)(C)COS(=O)(=O)ON1C(=O)N2C[C@H]1CC[C@H]2C(N)=O [avibactam derivative (37), heptyl 5-(((((1R,2S,5R)-2-carbamoyl-7-oxo-1,6-diazabicyclo[3.2.1]octan-6-yl)oxy)sulfonyl)oxy)-4,4-dimethylpentanoate]
[2]
  avibactam oral bioavailability (% F): greater than 10 % F

## C[C@@H](O)[C@H]1C(=O)N2C(C(=O)O)=C(SC3CN(C4=NCCS4)C3)[C@H](C)[C@H]12 [tebipenem]
[3]
  Estimated MIC90: 0.12 µg/mL
[4]
  Estimated MIC90: >32 µg/mL
  MIC90 with addition of avibactam: 1 µg/mL
[5]
  Estimated MIC90: >32 µg/mL
  MIC90 with addition of avibactam: 1 µg/mL
[6]
  Estimated MIC90: 0.25 µg/mL
314 Enterobacteriaceae
  Estimated MIC90: 2 µg/mL
  MIC90 with addition of avibactam: 0.25 µg/mL

## C[C@@H](O)[C@H]1C(=O)N2C(C(=O)O)=C(S[C@H]3CC[S@@+]([O-])C3)S[C@H]12 [sulopenem]
[3]
  Estimated MIC90: 0.12 µg/mL
[4]
  Estimated MIC90: >32 µg/mL
  MIC90 with addition of avibactam: 1 µg/mL
[5]
  Estimated MIC90: >32 µg/mL
  MIC90 with addition of avibactam: 1 µg/mL
[6]
  Estimated MIC90: 0.5 µg/mL
314 Enterobacteriaceae
  Estimated MIC90: 8 µg/mL
  MIC90 with addition of avibactam: 0.25 µg/mL

## CCCCOC(=O)C(C)(C)COS(=O)(=O)ON1C(=O)N2C[C@H]1CC[C@H]2C(N)=O [avibactam derivative (58), butyl 3-(((((1R,2S,5R)-2-carbamoyl-7-oxo-1,6-diazabicyclo[3.2.1]octan-6-yl)oxy)sulfonyl)oxy)-2,2-dimethylpropanoate]
[2]
  avibactam oral bioavailability (% F): greater than 10 % F

## ethyl 3-(((((1R,2S,5R)-2-carbamoyl-7-oxo-1,6-diazabicyclo[3.2.1]octan-6-yl)oxy)sulfonyl)oxy)-2,2-dimethylpropanoate [avibactam derivative (3)]
[7]; First Quartile, avibactam
  AUC0-INF: 5.9
[7]; Max, avibactam
  AUC0-INF: 10.9
[7]; Mean, avibactam
  AUC0-INF: 7.6
[7]; Min, avibactam
  AUC0-INF: 3.1
[7]; ThirdQuartile, avibactam
  AUC0-INF: 10.1
[7]; [11]
  AUCinf: about 7,600 ng×h/mL
  T1/2: about 1.5 hours
[7]; oral 600 mg of avibactam derivative (3), healthy
  T1/2: about 1.5 hours
[7]; orally administered dose not given
  dose of IV avibactam approximated by the oral dose: ~400 mg
[7]; orally administered dose of 300 mg
  dose of IV avibactam approximated by the oral dose: ~62.5 mg
[8]; single oral dose 300 mg
  Thalf: 1.51 (0.24) h
[8]; single oral dose 900 mg
  Thalf: 2.65 (0.46) h
[8]; single oral dose 1,350 mg
  Thalf: 2.33 (0.18) h
[1]
  oral bioavailability (% F): greater than 10 % F
[9]
  avibactam oral bioavailability: greater than 50 % F
[10]
  avibactam oral bioavailability: greater than 50 % F

## C=CC1=C(C(=O)O)N2C(=O)[C@@H](NC(=O)/C(=N\OCC(=O)O)c3csc(N)n3)[C@H]2SC1 [cefixime]
314 Enterobacteriaceae
  MIC90 with addition of avibactam: 1 µg/mL

## COCC1=C(C(=O)O)N2C(=O)[C@@H](NC(=O)/C(=N\OC)c3csc(N)n3)[C@H]2SC1 [cefpodoxime]
[3]
  Estimated MIC90: >32 µg/mL
[4]
  Estimated MIC90: >32 µg/mL
[5]
  Estimated MIC90: >32 µg/mL
[6]
  Estimated MIC90: >32 µg/mL
314 Enterobacteriaceae
  Estimated MIC90: >32 µg/mL
  MIC90 with addition of avibactam: 4 µg/mL

## CC(C)(C)OC(=O)C(C)(C)COS(=O)(=O)ON1C(=O)N2C[C@H]1CC[C@H]2C(N)=O [avibactam derivative (14), tert-butyl 3-(((((1R,2S,5R)-2-carbamoyl-7-oxo-1,6-diazabicyclo[3.2.1]octan-6-yl)oxy)sulfonyl)oxy)-2,2-dimethylpropanoate]
[1]
  oral bioavailability (% F): greater than 10 % F

## CCCCCCCOC(=O)C(C)(C)COS(=O)(=O)ON1C(=O)N2C[C@H]1CC[C@H]2C(N)=O [avibactam derivative (13), heptyl 3-(((((1R,2S,5R)-2-carbamoyl-7-oxo-1,6-diazabicyclo[3.2.1]octan-6-yl)oxy)sulfonyl)oxy)-2,2-dimethylpropanoate]
[1]
  oral bioavailability (% F): greater than 10 % F
[9]
  avibactam oral bioavailability: greater than 50 % F
[10]
  avibactam oral bioavailability: greater than 50 % F

## CCCCCCOC(=O)CCC(C)(C)COS(=O)(=O)ON1C(=O)N2C[C@H]1CC[C@H]2C(N)=O [avibactam derivative (36), hexyl 5-(((((1R,2S,5R)-2-carbamoyl-7-oxo-1,6-diazabicyclo[3.2.1]octan-6-yl)oxy)sulfonyl)oxy)-4,4-dimethylpentanoate]
[2]
  avibactam oral bioavailability (% F): greater than 10 % F

## COC(=O)C(C)(C)COS(=O)(=O)ON1C(=O)N2C[C@H]1CC[C@H]2C(N)=O [avibactam derivative (10), methyl 3-(((((1R,2S,5R)-2-carbamoyl-7-oxo-1,6-diazabicyclo[3.2.1]octan-6-yl)oxy)sulfonyl)oxy)-2,2-dimethylpropanoate]
[1]
  oral bioavailability (% F): greater than 10 % F

## CCCOC(=O)C(C)(C)COS(=O)(=O)ON1C(=O)N2C[C@H]1CC[C@H]2C(N)=O [avibactam derivative (57), propyl 3-(((((1R,2S,5R)-2-carbamoyl-7-oxo-1,6-diazabicyclo[3.2.1]octan-6-yl)oxy)sulfonyl)oxy)-2,2-dimethylpropanoate]
[2]
  avibactam oral bioavailability (% F): greater than 10 % F
